From patent US20190389903A1, “INSULIN A-CHAIN DERIVED PEPTIDE FRAGMENT AND PHARMACEUTICAL COMPOSITION FOR PREVENTING OR TREATING DIABETES OR DIABETIC WOUNDS, CONTAINING THE SAME” (SUPADELIXIR INC., priority 2017, published 2019)

Experiments:
Assay type in all cases: cell-based
[1] = system: physical interaction between Grb2 and SOS1; assay: Insulin-like activity: Grb2-SOS1 physical interaction by PLA (proximity ligation assay) in HaCaT cells; settings: 1 μM, 5 min, Humulin R at same concentration, FIG. 1
Protocol: When the insulin signal is transmitted into cells, the physical interaction between Grb2 and SOS1 is increased. After treatment of the cells with the peptide of the present invention, the physical interaction between Grb2 and SOS1 was measured through PLA (proximity ligation assay) and thus insulin-like activity was evaluated. 4.5×10^4 HaCaT cells (CLS 300493) were seeded in a DMEM serum medium in each well of a 24-well microplate and cultured in a 5% CO2 incubator at 37° C. for 24 hr, after which the peptide solution of Example 2 was added such that the peptide concentration of SEQ ID NOS: 1 to 6 in the medium was 1 μM, followed by incubation for 5 min under the same conditions. As a positive control, Humulin R was treated at the same concentration. A control received no treatment. The cells of each well were washed with PBS, treated with 2% formaldehyde for 15 min to thus fix the same, and then treated with 0.1% TritonX-100 for 5 min to thus increase antibody permeability into the cells. […] The physical interactions of the Grb2 and SOS1 antibodies were quantified by measuring the PLA signals detected in individual cells using a confocal laser microscope (Olympus FluoView FW1000; Olympus, Tokyo, Japan).

insulin receptor [2] = assay: RNA interference: endocytosis after insulin receptor siRNA transfection in HaCaT cells; settings: FITC-conjugated peptide 1 μM, 5 min, siRNA 10 nM or 30 nM vs no treatment, FIG. 2B
Protocol: Based on the above test results, in order to determine whether the effect of the peptide of the present invention on endocytosis is mediated by the insulin receptor, RNA interference was analyzed. HaCaT cells (CLS 300493) were cultured in a DMEM serum medium until the cells reached 50-60% confluency, followed by transient transfection using the insulin receptor siRNA (Santa Cruz, Calif., USA) (no treatment, 10 nM treatment, or 30 nM treatment) and lipofectamine RNAiMAX (Invitrogen) in accordance with the manufacturer's protocol to thus inhibit the insulin receptor expression, after which the cells were treated for 5 min using the peptide of SEQ ID NO: 3 having the fluorescent material conjugated thereto at a concentration of 1 μM. The fluorescence intensity of each group was observed using a confocal laser microscope (Olympus FluoView FW1000; Olympus, Tokyo, Japan).

HaCaT cells [3] = assay: 2-NBDG glucose uptake analysis; settings: 0.001, 0.01, 0.1 μM in serum-free media, 5 min, FIG. 5
Protocol: 2-NBDG glucose, which is a fluorescent deoxyglucose analogue, is introduced into cells by a glucose transporter, like glucose, but accumulates without actual metabolism, and thus the extent of glucose uptake may be determined based on the accumulated amount of fluorescence. A 2-NBDG glucose uptake kit (Biovision) was used for 2-NBDG glucose uptake analysis. Specifically, 3×10^4 HaCaT cells (CLS 300493) were seeded in each well of a 24-well plate, cultured in a 5% CO2 incubator at 37° C. for 24 hr with a DMEM serum medium, washed with PBS, and treated with the peptide of SEQ ID NO: 3 and Humulin R such that the concentrations in serum-free media were 0.001 μM, 0.01 μM, and 0.1 μM, followed by incubation for 5 min. A mixed solution of a 2-NBDG reagent and a glucose uptake enhancer was prepared in accordance with the manufacturer's protocol, after which the cells were treated therewith for 1 hr, washed with the supplied cold 1× analysis buffer, and observed using a confocal laser microscope (Olympus FluoView FW1000; Olympus, Tokyo, Japan).

insulin receptor [4] = assay: Immunofluorescence analysis of endocytosis of FITC-conjugated peptide in HaCaT cells; settings: FITC-conjugated peptide 1 μM, 5, 15, 30, 60 min tested, FIG. 2A
Protocol: In order to evaluate whether, like insulin, the peptide of the present invention induces endocytosis by binding to the insulin receptor, immunofluorescence analysis was performed. A fluorescent material (FITC) was conjugated to the peptide of SEQ ID NO: 3. HaCaT cells (CLS 300493) were pretreated in the same manner as in Test Example 1, added with the peptide solution of SEQ ID NO: 3 having the fluorescent material conjugated thereto such that the final concentration was 1 μM, and then treated for 5 min, 15 min, 30 min, and 60 min. The cells were washed three times with a PBS solution and then mounted onto a slide to give a test specimen, which was then observed using a confocal laser microscope (Olympus FluoView FW1000; Olympus, Tokyo, Japan). […] The insulin binds to the insulin receptor in the cells, followed by endocytosis (internalization) and then degradation.

[5] = system: glucose transporter (GLUT4); assay: Translocation of glucose transporter to cell membrane by immunofluorescence; settings: HaCaT cells; 0.001, 0.01 and 0.1 μM in serum-free DMEM, 5 min; FIG. 7
Protocol: In addition, the translocation of the glucose transporter to the cell membrane in HaCaT cells was evaluated through immunofluorescence analysis. Specifically, HaCaT cells (CLS 300493) were treated with the peptide of SEQ ID NO: 3 and Humulin R (positive control) at concentrations of 0.001, 0.01 and 0.1 μM in a serum-free DMEM medium for 5 min. The cells were washed with a PBS solution, treated with a GLUT4 antibody (Santa Cruz, Calif., USA) for 1 hr, treated with rhodamine red for 40 min, and observed using a confocal laser microscope (Olympus FluoView FW1000; Olympus, Tokyo, Japan).

HaCaT cells [6] = assay: Cell migration test (Culture-Insert 2 Well); settings: peptide 0.01, 0.1, 1 μM or Humulin R 1 μM for 5 min, observed after 10 hr and 13 hr, FIG. 3
Protocol: For cell migration testing, a Culture-Insert 2 Well (Ibidi™), having two separate culture spaces therein, was used. When cells are cultured on the above plate, the cells are attached to both sides, between which an empty space is formed, followed by removal of the insert well and further culturing, whereby the cells of the two sides migrate to the empty space of the plate. HaCaT cells (CLS 300493) were cultured on the above plate until the cells reached 90% confluency and then the insert well was removed, after which the cells were treated for 5 min with the peptide of SEQ ID NO: 3 (0.01 μM, 0.1 μM, 1 μM) or Humulin R (1 μM), and washed with PBS, after which the medium was replaced with a cell culture medium (DMEM serum medium). After 10 hr and 13 hr, cell migration was observed through a phase contrast microscope.

HaCaT cells [7] = assay: Cell proliferation test (CCK-8); settings: 0.1, 1 and 10 μM in serum-free media, 24, 48 and 72 hr, FIG. 4
Protocol: For cell proliferation testing, 5×10^3 HaCaT cells (CLS 300493) were seeded in each well of a 96-well plate, and then treated with a solution containing the peptide of SEQ ID NO: 3 (total volume: 90 μl) such that the concentrations in serum-free media were 0.1, 1 and 10 μM. Cell proliferation for 24, 48 and 72 hr was observed using a microplate reader (Versa Max, USA). For measurement, treatment was performed for 2 hr using 10 μl of a CCK-8 (cell counting kit-8) solution at the same time every day.

insulin receptor [8] = assay: 2-NBDG glucose uptake after inhibition of insulin receptor expression using siRNA; settings: peptide 1 μM, 5 min; siRNA 10 nM or 30 nM vs no treatment; HaCaT cells; FIG. 6
Protocol: Based on the above test results, in order to evaluate whether, like insulin, the peptide of the present invention enhances glucose uptake through the insulin receptor, insulin receptor expression was inhibited using siRNA, after which 2-NBDG glucose uptake testing was performed. HaCaT cells (CLS 300493) were cultured in a DMEM serum medium until the cells reached 50-60% confluency, followed by transient transfection using the insulin receptor siRNA (Santa Cruz, Calif., USA) (no treatment, 10 nM treatment, or 30 nM treatment) and lipofectamine RNAiMAX (Invitrogen) in accordance with the manufacturer's protocol to thus inhibit insulin receptor expression, after which the cells were treated for 5 min using the peptide of SEQ ID NO: 3 at a concentration of 1 μM. A mixed solution of a 2-NBDG reagent and a glucose uptake enhancer was prepared in accordance with the manufacturer's protocol, after which the cells were treated therewith for 1 hr, washed with the supplied cold 1× analysis buffer, and observed using a confocal laser microscope (Olympus FluoView FW1000; Olympus, Tokyo, Japan).

Sequence of insulin receptor (P06213 28-758 limits assumed): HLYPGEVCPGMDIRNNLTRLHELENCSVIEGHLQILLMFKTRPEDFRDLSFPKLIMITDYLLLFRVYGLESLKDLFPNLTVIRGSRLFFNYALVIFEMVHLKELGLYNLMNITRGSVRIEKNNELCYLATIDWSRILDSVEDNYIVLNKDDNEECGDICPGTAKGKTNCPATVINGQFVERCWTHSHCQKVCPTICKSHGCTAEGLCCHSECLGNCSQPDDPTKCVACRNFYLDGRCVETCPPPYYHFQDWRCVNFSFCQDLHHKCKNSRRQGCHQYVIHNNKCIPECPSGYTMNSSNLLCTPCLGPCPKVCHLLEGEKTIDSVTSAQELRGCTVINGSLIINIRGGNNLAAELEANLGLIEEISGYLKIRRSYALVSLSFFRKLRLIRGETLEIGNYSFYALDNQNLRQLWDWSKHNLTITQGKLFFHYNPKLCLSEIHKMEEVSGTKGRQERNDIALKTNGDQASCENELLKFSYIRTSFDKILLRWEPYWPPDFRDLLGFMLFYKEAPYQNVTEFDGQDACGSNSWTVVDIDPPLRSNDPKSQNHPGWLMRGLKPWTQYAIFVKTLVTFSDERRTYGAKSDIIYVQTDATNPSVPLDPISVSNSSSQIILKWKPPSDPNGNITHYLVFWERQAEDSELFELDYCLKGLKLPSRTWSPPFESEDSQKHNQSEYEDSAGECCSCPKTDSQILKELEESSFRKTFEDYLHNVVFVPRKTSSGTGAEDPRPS
Sequence of insulin receptor (P06213 763-1382 partner limits assumed): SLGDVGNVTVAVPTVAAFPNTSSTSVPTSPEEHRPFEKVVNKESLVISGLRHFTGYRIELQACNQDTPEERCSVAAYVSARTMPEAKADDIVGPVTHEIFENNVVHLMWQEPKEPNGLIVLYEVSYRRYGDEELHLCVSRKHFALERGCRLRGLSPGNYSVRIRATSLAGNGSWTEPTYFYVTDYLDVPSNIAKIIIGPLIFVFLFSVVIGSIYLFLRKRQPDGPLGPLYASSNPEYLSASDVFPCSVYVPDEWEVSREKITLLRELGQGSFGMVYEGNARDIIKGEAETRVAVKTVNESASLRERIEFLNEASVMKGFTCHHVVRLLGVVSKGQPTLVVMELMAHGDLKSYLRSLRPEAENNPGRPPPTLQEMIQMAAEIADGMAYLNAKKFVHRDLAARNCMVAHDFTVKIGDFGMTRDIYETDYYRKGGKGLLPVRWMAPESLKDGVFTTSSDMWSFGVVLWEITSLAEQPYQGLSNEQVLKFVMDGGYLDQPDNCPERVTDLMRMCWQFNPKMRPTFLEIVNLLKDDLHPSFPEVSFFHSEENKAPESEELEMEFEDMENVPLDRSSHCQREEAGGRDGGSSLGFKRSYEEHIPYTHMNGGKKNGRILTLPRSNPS

For “Cys-Ser-Leu (CSL; Peptide fragment) [SEQ ID NO: 3]”, the “Grb2/SOS1 antibody interaction (PLA signals) compared to positive control Humulin R” value [1] was “significantly higher antibody interaction than the positive control”, the “Incidence of endocytosis in group transiently transfected with insulin receptor siRNA” value (insulin receptor [2]) was “reduced” and the “Glucose uptake (2-NBDG)” value (HaCaT cells [3]) was “increased in a concentration-dependent manner”. The “Time after treatment at which highest endocytosis (fluorescence) was observed” value (insulin receptor [4]) was 5 min, the “Amount of glucose transporter (GLUT4) in the cell membrane” value [5] was “increased in the cell membrane in a concentration-dependent manner” and the Cell migration (HaCaT cells [6]) was “increased in a concentration-dependent manner”. For the same substance, the Cell proliferation (HaCaT cells [7]) was “increased in a concentration-dependent manner” and the “Glucose uptake (2-NBDG) in group transiently transfected with insulin receptor siRNA” value (insulin receptor [8]) was “reduced”.

In the case of “Humulin R: recombinant insulin preparation (injection), used as positive control [reference compound]”, the “Glucose uptake (2-NBDG)” value (HaCaT cells [3]) is reported as “increased in a concentration-dependent manner”, the “Amount of glucose transporter (GLUT4) in the cell membrane” value [5] is reported as “increased in the cell membrane in a concentration-dependent manner” and the Cell migration (HaCaT cells [6]) is reported as “increased”.
